# Like-named read-outs stand apart in the source and are kept apart here.
# What was measured:
# Type in all cases: cell-based
# [1] = target: hA2a (Homo sapiens (Human), UniProt P29274); assay: cAMP inhibition assay in hA2a/CHO cells; conditions: adenosine stimulation, read-out: cAMP & FLIPR IC50 (nM) hA2a
# Description: (§1) hA2a/CHO, hA2b/CHO and mA2a/CHO (Genscript) were plated at 5×10^3 cells/well into 384-well polystyrene plates at the day of experiment. Compounds were pre-incubated with cells for 30 min at 37° C., 5% CO2. Then […] adenosine was added to the cells and incubated for 30 min at 37° C., 5% CO2. Detection reagent (CISBIO) was added and the plates were incubated for 60 min at room temperature. The signal was captured by Envision.
# FLIPR™ and cAMP inhibition activities of exemplary compounds in different adenosine receptor over-expressing cell lines are shown in Table 4 below.
# [2] = target: hA2b (Homo sapiens (Human), UniProt P29275); assay: cAMP inhibition assay in hA2b/CHO cells; conditions: adenosine stimulation, read-out: cAMP & FLIPR IC50 (nM) hA2b
# Description: as §1
# [3] = target: mA2a (Mus musculus (Mouse), UniProt Q60613); assay: cAMP inhibition assay in mA2a/CHO cells; conditions: adenosine stimulation, read-out: cAMP & FLIPR IC50 (nM) mA2a
# Description: as §1
# [4] = target: hA1 (Homo sapiens (Human), UniProt P30542); assay: FLIPR inhibition assay in hADORA1/CHO (hA1 expressing) cells; conditions: FLIPR calcium, adenosine stimulation
# Description: hADORA1/CHO (hA1 expressing) cells (Genscript) were plated at 1×10^4 cells/well into 384-well polystyrene plates one day before starting the experiment. On the day of experiment, the supernatant was discard and replaced with 40 µL of dye (FLIPR calcium 5 Assay Kit) per well and the plates were incubated for 60 mins at 37° C. plus 5% CO2. Then testing compounds were added at different concentrations for FLIPR™ inhibition assay. After a 400 s incubation with compound, […] adenosine was added into the cells, and the signal was captured by FLIPR.
# [5] = hADORA1/CHO cells, read-out: cAMP & FLIPR IC50 (nM) hA1
# Chain of hA2b (P29275 whole entry): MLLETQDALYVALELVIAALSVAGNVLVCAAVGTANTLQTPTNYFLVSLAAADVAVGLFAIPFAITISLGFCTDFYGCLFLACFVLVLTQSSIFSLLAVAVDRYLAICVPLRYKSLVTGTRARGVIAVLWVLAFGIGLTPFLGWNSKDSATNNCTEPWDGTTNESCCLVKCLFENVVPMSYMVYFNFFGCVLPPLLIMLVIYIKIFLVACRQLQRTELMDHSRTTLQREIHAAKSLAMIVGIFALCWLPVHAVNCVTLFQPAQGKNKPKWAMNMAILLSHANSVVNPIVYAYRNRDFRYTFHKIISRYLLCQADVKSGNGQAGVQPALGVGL
# Chain of hA2a (P29274 whole entry): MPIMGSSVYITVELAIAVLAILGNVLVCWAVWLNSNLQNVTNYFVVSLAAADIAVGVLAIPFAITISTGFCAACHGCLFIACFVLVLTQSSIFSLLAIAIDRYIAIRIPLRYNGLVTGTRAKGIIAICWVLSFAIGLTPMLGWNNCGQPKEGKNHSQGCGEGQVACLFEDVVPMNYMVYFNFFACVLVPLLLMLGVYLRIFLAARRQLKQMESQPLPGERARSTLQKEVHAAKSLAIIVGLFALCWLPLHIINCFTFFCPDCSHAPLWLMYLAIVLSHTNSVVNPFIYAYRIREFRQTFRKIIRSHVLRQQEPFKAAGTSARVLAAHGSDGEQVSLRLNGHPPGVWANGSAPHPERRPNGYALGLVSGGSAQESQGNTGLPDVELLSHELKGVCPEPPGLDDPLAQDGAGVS
# Chain of mA2a (Q60613 whole entry): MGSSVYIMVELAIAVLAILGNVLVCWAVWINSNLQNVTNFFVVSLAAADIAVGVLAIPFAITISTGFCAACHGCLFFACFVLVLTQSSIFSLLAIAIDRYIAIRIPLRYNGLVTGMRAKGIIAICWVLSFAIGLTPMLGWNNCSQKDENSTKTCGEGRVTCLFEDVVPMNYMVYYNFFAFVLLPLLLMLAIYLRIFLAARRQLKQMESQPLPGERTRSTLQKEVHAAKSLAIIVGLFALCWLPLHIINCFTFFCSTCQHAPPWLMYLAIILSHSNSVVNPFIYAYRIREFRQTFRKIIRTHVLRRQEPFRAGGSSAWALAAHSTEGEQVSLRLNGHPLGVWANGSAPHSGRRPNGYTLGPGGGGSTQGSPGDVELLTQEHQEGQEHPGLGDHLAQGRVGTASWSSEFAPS
# Chain of hA1 (P30542 whole entry): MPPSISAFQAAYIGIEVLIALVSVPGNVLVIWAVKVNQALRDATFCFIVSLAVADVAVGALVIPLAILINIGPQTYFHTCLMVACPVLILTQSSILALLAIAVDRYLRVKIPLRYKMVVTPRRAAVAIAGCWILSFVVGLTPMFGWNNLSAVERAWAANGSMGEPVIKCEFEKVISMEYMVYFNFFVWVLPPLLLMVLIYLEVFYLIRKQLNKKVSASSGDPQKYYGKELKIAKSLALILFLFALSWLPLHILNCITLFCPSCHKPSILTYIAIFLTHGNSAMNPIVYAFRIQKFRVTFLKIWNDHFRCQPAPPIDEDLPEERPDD
structure (smiles),measurement,setting,value
"Cc1cnc2ccc(-c3c(-c4ccc(F)cc4)nc(N)n4nc(CCN(C)C)nc34)cn12 [Example 120, 2-(2-(dimethylamino)ethyl)-7-(4-fluorophenyl)-8-(3-methylimidazo[l,2-a]pyridin-6-yl)-[l,2,4]tria zolo[1,5-c]pyrimidin-5-amine]",IC50,[1],0.6 nM
same,IC50,[2],146 nM
same,IC50,[3],9.5 nM
same,IC50,[4]; [5],66.7 nM
"Cn1cc(-c2c(-c3ccc4c(ccn4C)c3)nc(N)n3nc(Cc4ncccc4F)nc23)ccc1=O [Example 97, 5-(5-amino-2-((3-fluoropyridin-2-yl)methyl)-7-(1-methyl-1H-indol-5-yl)-[1,2,4]triazolo[1,5-c]pyrimidin-8-yl)-1-methylpyridin-2(1H)-one]",IC50,[1],47 nM
same,IC50,[2],1720 nM
same,IC50,[3],120 nM
same,IC50,[4]; [5],19 nM
"Cc1cc(-c2c(-c3ncco3)nc(N)n3nc(Cc4c(F)cccc4F)nc23)cc(C#N)n1 [Example 83, 4-(5-amino-2-(2,6-difluorobenzyl)-7-(oxazol-2-yl)-[1,2,4]triazolo[1,5-c]pyrimidin-8-yl)-6-methylpicolinonitrile]",IC50,[1],18 nM
same,IC50,[2],10000 nM
same,IC50,[3],76 nM
same,IC50,[4]; [5],923 nM
"Nc1nc(-c2ccc(F)cc2)c(-c2ccc(=O)n(C3CC3)c2)c2nc(Cc3ncccc3F)nn12 [Example 36, 5-(5-amino-7-(4-fluorophenyl)-2-((3-fluoropyridin-2-yl)methyl)-[1,2,4]triazolo[1,5-c]pyrimidin-8-yl)-1-cyclopropylpyridin-2(1H)-one]",IC50,[1],20 nM
same,IC50,[2],408 nM
same,IC50,[3],31 nM
same,IC50,[4]; [5],45 nM
"Cc1cnc2ccc(-c3c(-c4ncco4)nc(N)n4nc(CC5CCOC5)nc34)cn12 (single isomer, unassigned) [Example 107-2, 8-(3-methylimidazo[1,2-a]pyridin-6-yl)-7-(oxazol-2-yl)-2-((tetrahydrofuran-3-yl)methyl)-[1,2,4]triazolo[1,5-f]pyrimidin-5-amine]",IC50,[1],0.5 nM
same,IC50,[2],473 nM
same,IC50,[3],27.7 nM
same,IC50,[4]; [5],34.5 nM
"Nc1nc(-c2ccc(F)cc2)c(-c2ccc(=O)n(C3CS(=O)(=O)C3)c2)c2nc(Cc3c(F)cccc3F)nn12 [Example 60, 5-(5-amino-2-(2,6-difluorobenzyl)-7-(4-fluorophenyl)-[1,2,4]triazolo[1,5-c]pyrimidin-8-yl)-1-(1,1-dioxidothietan-3-yl)pyridin-2(1H)-one]",IC50,[1],56 nM
same,IC50,[2],3300 nM
same,IC50,[3],16 nM
same,IC50,[4]; [5],40 nM
"Cn1cc(-c2c(Cl)nc(N)n3nc(Cc4c(F)cccc4F)nc23)ccc1=O [Example 28, 5-(5-amino-7-chloro-2-(2,6-difluorobenzyl)-[1,2,4]triazolo[1,5-c]pyrimidin-8-yl)-1-methylpyridin-2(1H)-one]",IC50,[1],158 nM
same,IC50,[2],6420 nM
same,IC50,[3],217 nM
same,IC50,[4]; [5],1150 nM
"Cn1nc(-c2c(-c3ccc(F)cc3)nc(N)n3nc(Cc4ncccc4F)nc23)ccc1=O [Example 30, 6-(5-amino-7-(4-fluorophenyl)-2-((3-fluoropyridin-2-yl)methyl)-[1,2,4]triazolo[1,5-f]pyrimidin-8-yl)-2-methylpyridazin-3(2H)-one]",IC50,[1],5.9 nM
same,IC50,[2],160 nM
same,IC50,[3],25 nM
same,IC50,[4]; [5],16 nM
"Cc1cc(-c2c(-c3ccc(F)cc3)nc(N)n3nc(Cc4cccc(Cl)n4)nc23)ccn1 [Example 15, 2-[(6-chloropyridin-2-yl)methyl]-7-(4-fluorophenyl)-8-(2-methylpyridin-4-yl)-[1,2,4]triazolo[1,5-c]pyrimidin-5-amine]",IC50,[1],46 nM
same,IC50,[2],582 nM
same,IC50,[3],88 nM
same,IC50,[4]; [5],27 nM
"Nc1nc(-c2ccc(F)cc2)c(-c2ccc3nccnc3c2)c2nc(Cc3ncccc3F)nn12 [Example 96, 7-(4-fluorophenyl)-2-((3-fluoropyridin-2-yl)methyl)-8-(quinoxalin-6-yl)-[l,2,4]triazolo[l,5-c] pyrimidin-5-amine]",IC50,[1],25 nM
same,IC50,[2],3800 nM
same,IC50,[3],123 nM
same,IC50,[4]; [5],681 nM
"CC(C)n1cc(-c2c(-c3ncco3)nc(N)n3nc(Cc4ncccc4F)nc23)ccc1=O [Example 80, 5-(5-amino-2-((3-fluoropyridin-2-yl)methyl)-7-(oxazol-2-yl)-[1,2,4]triazolo[1,5-c]pyrimidin-8-yl)-1-isopropylpyridin-2(1H)-one]",IC50,[1],3.6 nM
same,IC50,[2],186 nM
same,IC50,[3],4.9 nM
same,IC50,[4]; [5],25 nM
"Cc1cnc2ccc(-c3c(-c4ccc(F)cc4)nc(N)n4nc(C[C@@H]5CCCN5C)nc34)cn12 [Example 122, (S)-7-(4-fluorophenyl)-8-(3-methylimidazo[1,2-a]pyridin-6-yl)-2-((l-methylpyrrolidin-2-yl)methyl)-[1,2,4]triazolo[1,5-c]pyrimidin-5-amine]",IC50,[1],0.3 nM
same,IC50,[2],93.5 nM
same,IC50,[3],2.6 nM
same,IC50,[4]; [5],67.7 nM
"Nc1nc(-c2ccc(F)cc2)c(-c2ccc3ncsc3c2)c2nc(Cc3ncccc3F)nn12 [Example 88, 8-(benzo[d]thiazol-6-yl)-7-(4-fluorophenyl)-2-((3-fluoropyridin-2-yl)methyl)-[1,2,4]triazolo[1,5-c]pyrmidin-5-amine]",IC50,[1],0.7 nM
same,IC50,[2],47 nM
same,IC50,[3],2.6 nM
same,IC50,[4]; [5],110 nM
"Cn1cc(-c2c(-c3ccccn3)nc(N)n3nc(Cc4c(F)cccc4F)nc23)ccc1=O [Example 92, 5-[5-amino-2-[(2,6-difluorophenyl)methyl]-7-(pyridin-2-yl)-[1,2,4]triazolo[1,5-c]pyrimidin-8-yl]-1-methyl-1,2-dihydropyridin-2-one]",IC50,[1],8 nM
same,IC50,[2],680 nM
same,IC50,[3],11 nM
same,IC50,[4]; [5],13 nM
"CNc1cc(-c2c(-c3ccc(F)cc3)nc(N)n3nc(Cc4ncccc4F)nc23)ccn1 [Example 43, 7-(4-fluorophenyl)-2-((3-fluoropyridin-2-yl)methyl)-8-(2-(methylamino)pyridin-4-yl)-[1,2,4]triazolo[1,5-c]pyrimidin-5-amine]",IC50,[1],19 nM
same,IC50,[2],12 nM
same,IC50,[3],41 nM
same,IC50,[4]; [5],24 nM
"Cc1cnc2ccc(-c3c(-c4ncco4)nc(N)n4nc(Cc5ncccc5F)nc34)cn12 [Example 99, 2-((3-fluoropyridin-2-yl)methyl)-8-(3-methylimidazo[l,2-a]pyridin-6-yl)-7-(oxazol-2-yl)-[l,2,4] triazolo[l,5-c]pyrimidin-5-amine]",IC50,[1],0.5 nM
same,IC50,[2],21 nM
same,IC50,[3],0.8 nM
same,IC50,[4]; [5],3.5 nM
"Nc1nc(-c2ncco2)c(-c2ccc3nccn3c2)c2nc(Cc3ncccc3OC(F)F)nn12 [Example 74, 2-((3-(difluoromethoxy)pyridin-2-yl)methyI)-8-(imidazo[1,2-a]pyridin-6-yl)-7-(oxazol-2-yl)-[1,2, 4]triazolo[1,5-c]pyrimidin-5-amine]",IC50,[1],0.8 nM
same,IC50,[2],14 nM
same,IC50,[3],1.2 nM
same,IC50,"[4]; cAMP & FLIPR IC50 (nM) hA1, hADORA1/CHO cells",11 nM
"Cn1cc(-c2c(-c3ccc(F)cc3F)nc(N)n3nc(Cc4ncccc4F)nc23)ccc1=O [Example 64, 5-(5-amino-7-(2,4-difluorophenyl)-2-((3-fluoropyridin-2-yl)methyl)-[1,2,4]triazolo[1,5-c]pyrimidin-8-yl)-l-methylpyridin-2(lH)-one]",IC50,[1],68 nM
same,IC50,[2],742 nM
same,IC50,[3],137 nM
same,IC50,[4]; [5],97 nM
"Cc1cnc2ccc(-c3c(N4CCCC4)nc(N)n4nc(Cc5c(F)cccc5F)nc34)cn12 [Example 123, 2-(2,6-difluorobenzyl)-8-(3-methylimidazo[l,2-a]pyridin-6-yl)-7-(pyrrolidin-1-yl)-[1,2,4]triazolo [1,5-c]pyrimidin-5-amine]",IC50,[1],0.4 nM
same,IC50,[2],80.5 nM
same,IC50,[3],16.5 nM
same,IC50,[4]; [5],42.4 nM
"Cn1cc(-c2c(-n3cccn3)nc(N)n3nc(Cc4ncccc4F)nc23)ccc1=O [Example 63, 5-[5-amino-2-[(3-fluoropyridin-2-yl)methyl]-7-(1H-pyrazol-1-yl)-[1,2,4]triazolo[1,5-c]pyrimidin-8-yl]-1-methyl-1,2-dihydropyridin-2-one]",IC50,[1],122 nM
same,IC50,[2],1560 nM
same,IC50,[3],125 nM
same,IC50,[4]; [5],250 nM
"Cc1cnc2ccc(-c3c(-c4ncco4)nc(N)n4nc(CC5CCOC5)nc34)cn12 (single isomer, unassigned) [Example 107-1, 8-(3-methylimidazo[1,2-a]pyridin-6-yl)-7-(oxazol-2-yl)-2-((tetrahydrofuran-3-yl)methyl)-[1,2,4]triazolo[1,5-f]pyrimidin-5-amine]",IC50,[1],0.5 nM
same,IC50,[2],416 nM
same,IC50,[3],32.7 nM
same,IC50,[4]; [5],54.6 nM
"Cn1cnc2ccc(-c3c(-c4ccc(F)cc4)nc(N)n4nc(Cc5ncccc5F)nc34)cc21 [Example 69, 7-(4-fluorophenyl)-2-((3-fluoropyridin-2-yl)methyl)-8-(1-methyl-1H-benzo[d]imidazol-6-yl)-[1,2, 4]triazolo[l,5-c]pyrimidin-5-amine]",IC50,[1],0.1 nM
same,IC50,[2],4.69 nM
same,IC50,[3],0.3 nM
same,IC50,[4]; [5],22 nM

# — US10858365B2, “Triazolo-pyrimidine compounds and uses thereof” (Dizal (Jiangsu) Pharmaceutical Co., Ltd., priority 2018, dated 2020)
